From PubChem BioAssay AID1963985 (Molecular Pharmacology Branch, DTP, NCI, 2024)
pIC50: −log10 of the molar value.

Tested on: 252836-082-R-J2-PDC tumor spheroids, viability
Assay: Anticancer human tumor 252836-082-R-J2-PDC patient-derived head and neck squamous cell carcinoma cell line growth inhibition [PI3K]
Conditions: spheroids with HUVEC and MSC; for viability, T/C: stronger effect = lower value
Source text: Combinatorial screen of targeted agents with the PI3K inhibitors inavolisib, alpelisib, duvelisib, and copanlisib in multi-cell type tumor spheroids
A high-throughput screen of multi-cell type tumor spheroids was designed to identify active combinations of targeted small molecules and PI3K pathway inhibitors. Complex spheroids include a stromal component modeled by human endothelial cells (HUVEC) and fibroblasts modeled by human mesenchymal stem cells (MSCs). The concentration ranges selected for each drug and investigational agent were based upon clinically achievable concentrations if the clinical Cmax of the agent was known.
Compounds. The drugs and investigational agents: inavolisib (NSC800729), alpelisib (NSC765974), duvelisib (NSC772469), copanlisib (NSC816437), ipatasertib (NSC767898), afuresertib (NSC778305), talazoparib (NSC767125), sapanisertib (NSC764658), selumetinib (NSC741078), tovorafenib (DAY101, NSC766906), vemurafenib (NSC761431), ravoxertinib (NSC781343), sotorasib (NSC818433), MRTX1133 (NSC 836407), abemaciclib (NSC 768073), palbociclib (NSC758247), venetoclax (NSC 766270), SY5609 (NSC837396), enzalutamide (NSC755605), and darolutamide (NSC825331), were obtained from the National Cancer Institute (NCI) Developmental Therapeutics Program Chemical Repository. The FDA-approved anticancer drug set is available from the NCI Developmental Therapeutics Program. […] The stock solutions were prepared in dimethyl sulfoxide (DMSO, Sigma-Aldrich, St. Louis, MO, cat. D2650) at 800-fold the tested concentration and stored at -70 degrees C prior to their use. All drugs and investigational agents were tested over a range starting from a high concentration at or near the clinical Cmax and decreasing in half-log increments. If the clinical Cmax for an agent had not been determined, the highest concentration tested was 10 microM.
Cell Culture. All cells were maintained in an incubator at 37 degrees C and 5% CO2 with 95% humidity. The PDC lines were cultured according to standard operating procedures established by the NCI PDMR (https://pdmr.cancer.gov/sops/default.htm). All PDCs were thawed and cultured in Matrigel-coated flasks prepared with a working solution of 1X Ham's F-12 nutrient mix, without supplementation (Invitrogen, Waltham, MA, cat. 11765054), 100 U/mL penicillin-streptomycin (Invitrogen, cat. 15140122), and 2.5% Matrigel (Corning Inc., Corning, NY, cat. 354248) for the first three passages. The 354836-022-R-J1-PDC, 475296-252-R-J1-PDC, and 997726-040-R-J2-PDC lines were cultured in 6A media, which includes advanced DMEM/F-12 (Thermo Fisher Scientific, cat. 12634028), 10 mM HEPES (Thermo Fisher Scientific, cat. 15630080), 1X GlutaMAX supplement (Thermo Fisher Scientific, cat. 35050061), 0.1 mg/mL primocin (InvivoGen, San Diego, CA, cat. ant-pm-2), 10% defined fetal bovine serum, heat inactivated (HyClone Laboratories Inc., Logan, UT, cat. SH30070.03HI), 50% L-WRN conditioned media (ATCC, cat. CRL-3276), 1.25 mM N-Acetyl-L-cysteine (Sigma-Aldrich, cat. A9165), 10 mM nicotinamide (Sigma-Aldrich, cat. N0636), 1X B-27 supplement (Thermo Fisher Scientific, cat. 17504044), 1X N-2 supplement (Thermo Fisher Scientific, cat. 17502048), and 10 microM Y-27632 dihydrochloride (Tocris Bioscience, Bristol, United Kingdom, cat. 1254). The 624824-186-R-J2-PDC line was cultured in 6C/Colon 1B media, which includes all 6A media components plus 50 ng/mL human EGF recombinant protein (Thermo Fisher Scientific, cat. PHG0311). […]

[1] = curve of first compound, second compound 0.0316 µM
[2] = curve of first compound, second compound 0.1 µM
[3] = curve of first compound, second compound 0.316 µM
[4] = curve of first compound, second compound 1 µM
[5] = second compound 0.0316 µM, first compound 0.0316 µM
[6] = second compound 0.0316 µM, first compound 0.1 µM
[7] = second compound 0.0316 µM, first compound 0.316 µM
[8] = second compound 0.0316 µM, first compound 1 µM
[9] = second compound 0.0316 µM, first compound 3.16 µM
[10] = second compound 0.0316 µM, first compound 10 µM
[11] = second compound 0.1 µM, first compound 0.0316 µM
[12] = second compound 0.1 µM, first compound 0.1 µM
[13] = second compound 0.1 µM, first compound 0.316 µM
[14] = second compound 0.1 µM, first compound 1 µM
[15] = second compound 0.1 µM, first compound 3.16 µM
[16] = second compound 0.1 µM, first compound 10 µM
[17] = second compound 0.316 µM, first compound 0.0316 µM
[18] = second compound 0.316 µM, first compound 0.1 µM
[19] = second compound 0.316 µM, first compound 0.316 µM
[20] = second compound 0.316 µM, first compound 1 µM
[21] = second compound 0.316 µM, first compound 3.16 µM
[22] = second compound 0.316 µM, first compound 10 µM
[23] = second compound 1 µM, first compound 0.0316 µM
[24] = second compound 1 µM, first compound 0.1 µM
[25] = second compound 1 µM, first compound 0.316 µM
[26] = second compound 1 µM, first compound 1 µM
[27] = second compound 1 µM, first compound 3.16 µM
[28] = second compound 1 µM, first compound 10 µM
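Note: spheroids exposed to agents for seven days before readout.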
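Throughout, for viability, T/C: percent of vehicle DMSO control viability so 100% = untreated growth.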

With `CC(C)NCC(C(=O)N1CCN(c2ncnc3c2C(C)CC3O)CC1)c1ccc(Cl)cc1` (stereo not given) + Cc1nc(NC(=O)N2CCCC2C(N)=O)sc1-c1ccnc(C(C)(C)C(F)(F)F)c1 the pIC50 [1] was 6.01, the pIC50 [2] was 6.11 and the pIC50 [3] was 6.08. For the same compound, the pIC50 [4] was 6.34, the pIC50 (curve of first compound, second compound 3.16 µM) was > 7.50 and the pIC50 (curve of first compound, second compound 10 µM) was > 7.50. It also gave a viability, T/C [5] of 87.3%, a viability, T/C [6] of 73.3% and a viability, T/C [7] of 76.3%. The viability, T/C [8] was 47.9%, the viability, T/C [9] was 30.2% and the viability, T/C [10] was 22.1%. For the same compound, the viability, T/C [11] was 87.8%, the viability, T/C [12] was 73.7% and the viability, T/C [13] was 64%. It also gave a viability, T/C [14] of 47.7%, a viability, T/C [15] of 29.5% and a viability, T/C [16] of 19.2%. It also gave a viability, T/C [17] of 70.3%, a viability, T/C [18] of 67.3% and a viability, T/C [19] of 68.9%. The viability, T/C [20] was 44.5%, the viability, T/C [21] was 31.7% and the viability, T/C [22] was 21%. The viability, T/C [23] was 55.6%, the viability, T/C [24] was 50.3% and the viability, T/C [25] was 60.1%. The viability, T/C [26] was 40.2%, the viability, T/C [27] was 29.5% and the viability, T/C [28] was 19.1%. The viability, T/C (second compound 3.16 µM, first compound 0.0316 µM) was 41.3%, the viability, T/C (second compound 3.16 µM, first compound 0.1 µM) was 48.1% and the viability, T/C (second compound 3.16 µM, first compound 0.316 µM) was 43%. The viability, T/C (second compound 3.16 µM, first compound 1 µM) was 36.5%, the viability, T/C (second compound 3.16 µM, first compound 3.16 µM) was 25.8% and the viability, T/C (second compound 3.16 µM, first compound 10 µM) was 17.2%. It also gave a viability, T/C (second compound 10 µM, first compound 0.0316 µM) of 32.8%, a viability, T/C (second compound 10 µM, first compound 0.1 µM) of 36.1% and a viability, T/C (second compound 10 µM, first compound 0.316 µM) of 27.8%. It also gave a viability, T/C (second compound 10 µM, first compound 1 µM) of 21.6%, a viability, T/C (second compound 10 µM, first compound 3.16 µM) of 19.8% and a viability, T/C (second compound 10 µM, first compound 10 µM) of 10.1%.
For `CC1(C)CCC(CN2CCN(c3ccc(C(=O)NS(=O)(=O)c4ccc(NCC5CCOCC5)c([N+](=O)[O-])c4)c(Oc4cnc5[nH]ccc5c4)c3)CC2)=C(c2ccc(Cl)cc2)C1`, the viability, T/C (compound 0.0316 µM) was 97.7% [middle of 4 runs], the viability, T/C (compound 0.1 µM) was 99.2% [middle of 4 runs] and the viability, T/C (compound 0.316 µM) was 100% [middle of 4 runs]. The viability, T/C (compound 1 µM) was 96% [middle of 4 runs].
In the case of `C[C@@H](NC(=O)c1ncnc(N)c1Cl)c1ncc(C(=O)Nc2cc(C(F)(F)F)c(Cl)cn2)s1`, the viability, T/C (compound 0.0316 µM) was 98.2% [middle of 4 runs], the viability, T/C (compound 0.1 µM) was 93% [middle of 4 runs] and the viability, T/C (compound 0.316 µM) was 104% [middle of 4 runs]. For the same compound, the viability, T/C (compound 1 µM) was 109% [middle of 4 runs], the viability, T/C (compound 3.16 µM) was 96.5% [middle of 4 runs] and the viability, T/C (compound 10 µM) was 87.4% [middle of 4 runs]. The pIC50 (curve of compound) was < 5.00.
In the case of `C=CC(=O)N1CCN(c2nc(=O)n(-c3c(C)ccnc3C(C)C)c3nc(-c4c(O)cccc4F)c(F)cc23)C(C)C1` (stereo not given) + COc1c(OCCCN2CCOCC2)ccc2c3n(c(=NC(=O)c4cnc(N)nc4)nc12)CCN3, the pIC50 (curve of first compound, second compound 0.00316 µM) was < 5.00, the pIC50 (curve of first compound, second compound 0.01 µM) was < 5.00 and the pIC50 [1] was < 5.00. The pIC50 [2] was > 7.50, the pIC50 [3] was > 7.50 and the pIC50 [4] was > 7.50. For the same compound, the viability, T/C (second compound 0.00316 µM, first compound 0.0316 µM) was 92.7%, the viability, T/C (second compound 0.00316 µM, first compound 0.1 µM) was 94.5% and the viability, T/C (second compound 0.00316 µM, first compound 0.316 µM) was 96.1%. It also gave a viability, T/C (second compound 0.00316 µM, first compound 1 µM) of 99.7%, a viability, T/C (second compound 0.00316 µM, first compound 3.16 µM) of 118% and a viability, T/C (second compound 0.00316 µM, first compound 10 µM) of 94.9%. The viability, T/C (second compound 0.01 µM, first compound 0.0316 µM) was 74.4%, the viability, T/C (second compound 0.01 µM, first compound 0.1 µM) was 73.8% and the viability, T/C (second compound 0.01 µM, first compound 0.316 µM) was 89.2%. It also gave a viability, T/C (second compound 0.01 µM, first compound 1 µM) of 88.7%, a viability, T/C (second compound 0.01 µM, first compound 3.16 µM) of 98.2% and a viability, T/C (second compound 0.01 µM, first compound 10 µM) of 82.2%. It also gave a viability, T/C [5] of 63%, a viability, T/C [6] of 56.9% and a viability, T/C [7] of 55.3%. For the same compound, the viability, T/C [8] was 75.8%, the viability, T/C [9] was 77.4% and the viability, T/C [10] was 73.3%. It also gave a viability, T/C [11] of 36%, a viability, T/C [12] of 34.6% and a viability, T/C [13] of 34.9%. For the same compound, the viability, T/C [14] was 45.1%, the viability, T/C [15] was 45.1% and the viability, T/C [16] was 42.8%. The viability, T/C [17] was 19.2%, the viability, T/C [18] was 17.3% and the viability, T/C [19] was 22.8%. It also gave a viability, T/C [20] of 17.3%, a viability, T/C [21] of 20.8% and a viability, T/C [22] of 15.9%. The viability, T/C [23] was 5.1%, the viability, T/C [24] was 5.86% and the viability, T/C [25] was 5.59%. It also gave a viability, T/C [26] of 5.93%, a viability, T/C [27] of 7.35% and a viability, T/C [28] of 3.61%.
